Here are results for two substances from US20120027815A1, “USE OF PLASMA MEMBRANE CALCIUM ATPASE (PMCA) INHIBITORS TO INHIBIT SPERM MOBILITY” (priority 2003, published 2012).

Experiment [1] relates to normal sperm. In words: Inhibition of sperm motility evaluated automatically with the CASA System 4.2. It counts as cell-based, mouse. The settings on record: Group C: normal sperm, 45 minutes after preparation, 37° C., 30 minutes with 20 μM inhibitor. As for the experimental part:
PMCA4-deficient male mice were sacrificed and the epididymis of each was prepared. These tissues were placed into 2 ml of a sperm preparation medium (“Sperm Preparation Medium” from the MediCult a/s Company, Möllehaven 12, 4040 Jyllinge, Denmark, comprising: Earle's balanced saline solution, sodium pyruvate, synthetic serum substitute, IIEPES [hydroxy-ethyl-piperazine ethanesulphonic acid], sodium bicarbonate, human serum albumen; penicillin 50,000 IU/liter and streptomycin 50 mg/litre; Kahn, J. A., Human Reproduction 8/9, pages 1414-1419, 1993; Lähteenmaki, A., Human Reproduction 10/1, pages 142-147, 1995) and a subsequent incision was made using a sterile scalpel. All functioning sperm were allowed 15 minutes to swim out of the epididymis. […] Afterwards, the remaining motile sperm were counted in relation to the non-motile ones.
The inhibition of sperm motility was further evaluated automatically using the CASA System 4.2 from the medeaLAB Company, Erlangen, Germany. […]
For the above automated experimental protocol, the incubation time (compared to manual counting) was shortened (only 30 minutes instead of 1 hour) and the software also recorded non-meaningful objects that were present in the sample, such objects could be readily excluded with manual counting.

Experiment [2] relates to sperm. In words: Suppression of sperm mobility, manual counting of motile vs non-motile sperm. It counts as cell-based, mouse. Conditions: incubated 1 hour at 37° C., 30% non-motile without inhibitor. As for the experimental part: The inhibition of sperm function, i.e. the inhibition of sperm mobility, was determined as follows:
PMCA4-deficient male mice were sacrificed and the epididymis of each was prepared. These tissues were placed into 2 ml of a sperm preparation medium (“Sperm Preparation Medium” from the MediCult a/s Company, Möllehaven 12, 4040 Jyllinge, Denmark, comprising: Earle's balanced saline solution, sodium pyruvate, synthetic serum substitute, IIEPES [hydroxy-ethyl-piperazine ethanesulphonic acid], sodium bicarbonate, human serum albumen; penicillin 50,000 IU/liter and streptomycin 50 mg/litre; Kahn, J. A., Human Reproduction 8/9, pages 1414-1419, 1993; Lähteenmaki, A., Human Reproduction 10/1, pages 142-147, 1995) and a subsequent incision was made using a sterile scalpel. All functioning sperm were allowed 15 minutes to swim out of the epididymis. The supernatant containing these sperm was removed and mixed with 500 μl each of increasing concentrations of 5- and 6-carboxyeosindiacetate succinimidyl ester (CE). Following this step, the sperm were incubated for 1 hour at 37° C. CE diffuses into the sperm during this time; the ester is hydrolyzed on the intracellular level. Afterwards, the remaining motile sperm were counted in relation to the non-motile ones.

Experiment [3] has as its system PMCA. The settings on record: in vitro; cited from earlier work.

Take “5- and 6-carboxyeosindiacetate succinimidyl ester”: the “locally mobile or non-motile” value in experiment [1] (untreated Group A 27%) is 78%. This substance also gave a Progressive motility in experiment [1] (untreated Group A 73%) of 22%. Besides, the Non-motile sperm in experiment [2] (CE concentration 5 μM) is 90%; in experiment [2] (CE concentration 20 μM) it was 95%; in experiment [2] (CE concentration 100 μM) it was 97%.

Regarding “Caloxin 2A1: polypeptide with the amino acid sequence VSNSNWPSFPSSGGG, acts extracellularly on PMCA”, the “Binding to PMCA and influence on PMCA function” value in experiment [3] is “binds extra-cellularly to PMCA and has an inhibitory influence on the function of the PMCA”.
